From ChEMBL document CHEMBL4190255, “Novel celastrol derivatives with improved selectivity and enhanced antitumour activity: Design, synthesis and biological evaluation” (Eur J Med Chem, 2017)
Activity calls are given as the source filed them. The rule behind the calls is not given here.

Legend:
SK-OV-3 [1] = assay: Induction of apoptosis in human SKOV3 cells at IC50 concentration after 24 hrs by Annexin V-FITC/propidium iodide double staining based flow cytometry; type: functional, cell-based
BJ = assay: Cytotoxicity against human BJ cells assessed as reduction in cell viability after 72 hrs by MTT assay; type: cell-based
A549 [2] = assay: Antiproliferative activity against human A549 cells after 72 hrs by MTT assay; type: functional, cell-based; settings: A549, 72 h
MIA PaCa-2 = assay: Antiproliferative activity against human MIAPaCa2 cells after 72 hrs by MTT assay; type: functional, cell-based; settings: MIA PaCa-2, 72 h
SK-OV-3 [3] = assay: Antiproliferative activity against human SKOV3 cells after 72 hrs by MTT assay; type: functional, cell-based; settings: SK-OV-3, 72 h
SK-BR-3 = assay: Antiproliferative activity against human SKBR3 cells after 72 hrs by MTT assay; type: functional, cell-based; settings: SK-BR-3, 72 h
MDA-MB-231 = assay: Antiproliferative activity against human MDA-MB-231 cells after 72 hrs by MTT assay; type: functional, cell-based; settings: MDA-MB-231, 72 h
[4] = Selectivity index, ratio of IC50 for human BJ cells to IC50 for human A549 cells; type: toxicity; settings: BJ cells versus A549 cells, read-out: Ratio IC50
[5] = Selectivity index, ratio of IC50 for human BJ cells to IC50 for human MIAPaCa2 cells; type: toxicity; settings: BJ cells versus MIAPaCa2 cells, read-out: Ratio IC50
[6] = Selectivity index, ratio of IC50 for human BJ cells to IC50 for human SKOV3 cells; type: toxicity; settings: BJ cells versus SKOV3 cells, read-out: Ratio IC50
SK-OV-3 [7] = assay: Cell cycle arrest in human SKOV3 cells assessed as accumulation at G0/G1 phase at IC50 concentration after 24 to 72 hrs by propidium iodide-based flow cytometry; type: functional
SK-OV-3 [8] = assay: Cell cycle arrest in human SKOV3 cells assessed as accumulation at S phase at IC50 concentration after 24 to 72 hrs by propidium iodide-based flow cytometry; type: functional
SK-OV-3 [9] = assay: Cell cycle arrest in human SKOV3 cells assessed as accumulation at G2/M phase at IC50 concentration after 24 to 72 hrs by propidium iodide-based flow cytometry; type: functional
SK-OV-3 [10] = assay: Induction of apoptosis in human SKOV3 cells assessed as early apoptotic cells at IC50 concentration after 48 hrs by Annexin V-FITC/propidium iodide double staining based flow cytometry (reference value: 4.5%); type: functional
SK-OV-3 [11] = assay: Induction of apoptosis in human SKOV3 cells assessed as early apoptotic cells at IC50 concentration after 72 hrs by Annexin V-FITC/propidium iodide double staining based flow cytometry (reference value: 4.7%); type: functional
SK-OV-3 [12] = assay: Induction of apoptosis in human SKOV3 cells at IC50 concentration by Annexin V-FITC/propidium iodide double staining based flow cytometry; type: functional, cell-based; settings: TDE = time-dependent effect
SK-OV-3 [13] = assay: Induction of apoptosis in human SKOV3 cells assessed as cell shrinkage at IC50 concentration after 48 hrs by Hoechst 33342 staining-based fluorescence microscopy; type: functional
SK-OV-3 [14] = assay: Induction of apoptosis in human SKOV3 cells assessed as chromatin condensation at IC50 concentration after 48 hrs by Hoechst 33342 staining-based fluorescence microscopy; type: functional, cell-based
SK-OV-3 [15] = assay: Induction of apoptosis in human SKOV3 cells assessed as formation of apoptotic bodies at IC50 concentration after 48 hrs by Hoechst 33342 staining-based fluorescence microscopy; type: functional, cell-based
SK-OV-3 [16] = assay: Induction of apoptosis in human SKOV3 cells assessed as reduction in cell density at IC50 concentration after 48 hrs by Hoechst 33342 staining-based fluorescence microscopy; type: functional
SK-OV-3 [17] = assay: Induction of apoptosis in human SKOV3 assessed as decrease in procaspase-8 levels at IC50 concentration after 72 hrs by Western blot analysis; type: functional, cell-based
SK-OV-3 [18] = assay: Induction of apoptosis in human SKOV3 assessed as increase in cleaved caspase-8 levels at IC50 concentration after 72 hrs by Western blot analysis; type: functional, cell-based
SK-OV-3 [19] = assay: Induction of apoptosis in human SKOV3 assessed as decrease in procaspase-3 levels at IC50 concentration after 72 hrs by Western blot analysis; type: functional, cell-based
SK-OV-3 [20] = assay: Induction of apoptosis in human SKOV3 assessed as increase in cleaved PARP levels at IC50 concentration after 72 hrs by Western blot analysis; type: functional, cell-based
SK-OV-3 [21] = assay: Induction of apoptosis in human SKOV3 assessed as effect on bid levels at IC50 concentration after 72 hrs by Western blot analysis; type: functional, cell-based
SK-OV-3 [22] = assay: Induction of apoptosis in human SKOV3 assessed as effect on t-bid levels at IC50 concentration after 72 hrs by Western blot analysis; type: functional, cell-based
SK-OV-3 [23] = assay: Induction of apoptosis in human SKOV3 assessed as effect on bcl2 levels at IC50 concentration after 72 hrs by Western blot analysis; type: functional, cell-based
SK-OV-3 [24] = assay: Induction of apoptosis in human SKOV3 assessed as effect on bax levels at IC50 concentration after 72 hrs by Western blot analysis; type: functional, cell-based
SK-OV-3 [25] = assay: Induction of apoptosis in human SKOV3 assessed as effect on caspase-9 levels at IC50 concentration after 72 hrs by Western blot analysis; type: functional, cell-based
SK-OV-3 [26] = assay: Induction of apoptosis in human SKOV3 cells assessed as reduction in mutant p53 levels at IC50 concentration after 72 hrs by Western blot analysis; type: functional, cell-based
A549 [27] = assay: Effect on wild-type p53 expression in human A549 cells at IC50 concentration after 72 hrs by Western blot analysis; type: ADME, cell-based; settings: a549, 72 h
[28] = molecular target: T1, Heat shock protein HSP90 (Homo sapiens) (UniProt P07900+P08238); assay: Inhibition of HSP90 protein levels in human SKOV3 cells at IC50 concentration after 72 hrs by Western blot analysis; type: cell-based
[29] = molecular target: T1, Heat shock protein HSP90 (Homo sapiens); assay: Inhibition of HSP90 in human SKOV3 cells assessed as decrease in phosphorylated Akt levels at IC50 concentration after 72 hrs by Western blot analysis; type: cell-based
SK-OV-3 [30] = assay: Effect on total Akt levels in human SKOV3 cells at IC50 concentration after 72 hrs by Western blot analysis; type: ADME, cell-based; settings: sk-ov-3, 72 h
[31] = molecular target: T1, Heat shock protein HSP90 (Homo sapiens); assay: Inhibition of HSP90 in human SKOV3 cells assessed as decrease in phosphorylated mTOR levels at IC50 concentration after 72 hrs by Western blot analysis; type: cell-based
SK-OV-3 [32] = assay: Effect on total mTOR levels in human SKOV3 cells at IC50 concentration after 72 hrs by Western blot analysis; type: ADME, cell-based; settings: sk-ov-3, 72 h
SK-OV-3 [33] = assay: Potentiation of cisplatin-induced cytotoxicity in human SKOV3 cells assessed as combination index by measuring reduction in cell viability at 0.15 uM after 72 hrs by MTT assay; type: functional
SK-OV-3 [34] = assay: Potentiation of cisplatin-induced cytotoxicity in human SKOV3 cells assessed as combination index by measuring reduction in cell viability at 0.3 uM after 72 hrs by MTT assay; type: functional
SK-OV-3 [35] = assay: Potentiation of cisplatin-induced cytotoxicity in human SKOV3 cells assessed as combination index by measuring reduction in cell viability at 0.6 uM after 72 hrs by MTT assay; type: functional
SK-OV-3 [36] = assay: Potentiation of cisplatin-induced cytotoxicity in human SKOV3 cells assessed as combination index by measuring reduction in cell viability at 1.2 uM after 72 hrs by MTT assay; type: functional
SK-OV-3 [37] = assay: Potentiation of cisplatin-induced cytotoxicity in human SKOV3 cells assessed as combination index by measuring reduction in cell viability at 2.4 uM after 72 hrs by MTT assay; type: functional
SK-OV-3 [38] = assay: Potentiation of cisplatin-induced cytotoxicity in human SKOV3 cells assessed as combination index by measuring reduction in cell viability at 4.8 uM after 72 hrs by MTT assay; type: functional

CC1=C(O)C(=O)C=C2C1=CC=C1[C@@]2(C)CC[C@@]2(C)[C@@H]3C[C@](C)(NC(=O)NCCc4cccc(Cl)c4)CC[C@]3(C)CC[C@]12C
Activity (SK-OV-3 [1]): inactive | IC50 (BJ): 3290 nM | IC50 (A549 [2]): 1270 nM | IC50 (MIA PaCa-2): 350 nM | IC50 (SK-OV-3 [3]): 560 nM | IC50 (SK-BR-3): 780 nM | IC50 (MDA-MB-231): 1150 nM | selectivity ratio [4]: 2.59 | selectivity ratio [5]: 9.31 | selectivity ratio [6]: 5.81 | Activity (SK-OV-3 [7]): inactive | Activity (SK-OV-3 [8]): inactive | Activity (SK-OV-3 [9]): inactive | Activity (SK-OV-3 [10]): 15% | Activity (SK-OV-3 [11]): 31.8% | Activity (SK-OV-3 [12]): Tde | Activity (SK-OV-3 [13]): Active | Activity (SK-OV-3 [14]): Active | Activity (SK-OV-3 [15]): Active | Activity (SK-OV-3 [16]): Active | Activity (SK-OV-3 [17]): Active | Activity (SK-OV-3 [18]): Active | Activity (SK-OV-3 [19]): Active | Activity (SK-OV-3 [20]): Active | Activity (SK-OV-3 [21]): inactive | Activity (SK-OV-3 [22]): inactive | Activity (SK-OV-3 [23]): inactive | Activity (SK-OV-3 [24]): inactive | Activity (SK-OV-3 [25]): inactive | Activity (SK-OV-3 [26]): Active | Activity (A549 [27]): Non-Toxic | inhibition [28]: Active | inhibition [29]: Active | Activity (SK-OV-3 [30]): Non-Toxic | inhibition [31]: Active | Activity (SK-OV-3 [32]): Non-Toxic | CI (SK-OV-3 [33]): 1.047 | CI (SK-OV-3 [34]): 1.374 | CI (SK-OV-3 [35]): 1.44 | CI (SK-OV-3 [36]): 0.6855 | CI (SK-OV-3 [37]): 0.575 | CI (SK-OV-3 [38]): 0.7102
